Test results as given in patent US12698279B2, “Polymorphs of a hydrochloride salt of PN6047” (Pharmnovo AB, priority 2020, dated 2026).
Several values for one entry are separate records, joined by “and”; a condition that tells them apart may be missing. Identical values can stand only once. Entries after “also recorded” stand apart in the source; their conditions may differ. Like-named read-outs stand apart in the source and are kept apart here.

Experiments:
[1] = Dynamic vapour sorption (DVS) hygroscopicity; type: physicochemical; conditions: for hygroscopicity (classification as per the European Pharmacopoeia) / water uptake: 25° C./80% RH; for form by HT-XRPD after the DVS cycle: sorption-desorption-sorption 40-95-0-45% RH
Method: Analyses were performed on a DVS-1 system from Surface Measurement Systems (London, UK). Weight equilibration per step was set at dm/dt<0.002 for a minimum of 1 hour or a maximum of 6 hours. The sample was subjected to a sorption-desorption-sorption cycle running from 40 to 95 to 0 to 45% RH, at a constant temperature of 25° C. One cycle consisted of 20 steps, those between 0 and 90% RH were taken in 10% RH each. Afterwards the sample was measured by HT-XRPD.
Forms HCl2 and HCl3 were subjected to DVS measurements to determine the hygroscopicity of these two forms. The material initially took up water slowly with increasing relative humidity (RH) up to about 90% RH. The change in mass was approximately 3.3%, corresponding to about 1 molecule of water per molecule of PN6047. […] The material was then gradually dried from 95 to 0% RH in steps of 10% RH. The corresponding mass change upon drying was different than the initial mass increase upon hydration. Finally, from 0 to 40% RH, the water uptake proceeded in the same way as in the preceding dehydration step. […] It is believed that the uptake of the 2 additional molecules of water may have led to a change from form HCl2 to form HCl3.
The material gradually took up water with increasing relative humidity (RH) up to 95% RH. […] The material was then gradually dried from 95 to 0% RH in steps of 10% RH. The corresponding mass change upon drying was approximately the same as the initial mass increase upon hydration. Finally, from 0 to 40% RH, the water uptake proceeded in the same way as the preceding dehydration step.

[2] = Incubation at high humidity or under vacuum, form by XRPD; type: physicochemical; conditions: 2 days
Method: To further understand the hygroscopic nature of form HCl2, a sample of the material was incubated at 85% RH at room temperature for 2 days.
A sample of Form HCl3 was further incubated at 50° C./1 mbar for 2 days to determine whether conversion to Form HCl2 would take place.

[3] = Solution stability study in saline (LCMS); type: physicochemical
Method: Experiments were performed in saline (0.9% NaCl in water). Two stock solutions of Form HCl2 in saline were prepared, one with a concentration of 10 mg/mL and one with a concentration of 100 mg/mL. The 10 mg/mL stock solution was prepared by dissolving 56 mg of material in 5 mL of saline. The 100 mg/mL stock solution was prepared by dissolving 196.2 mg of material in 1.75 mL saline. For each experiment involving 10 mg/mL, 0.5 mL of stock solution was transferred to an HPLC vial whereas for each experiment involving 100 mg/mL, 0.15 mL of stock solution was transferred to an HPLC vial. The HPLC vials were closed with a screw cap and placed in a Crystal16™ apparatus and incubated at different temperatures.
After the incubation time, the samples were diluted with acetonitrile/water 1:1 (v/v) and measured by LCMS to determine the API peak area.

[4] = Solid-state stability study (XRPD, TGA, LCMS); type: physicochemical; conditions: for LCMS API / TGA mass loss / XRPD: solid state
Method: The solid-state stability of Form HCl2 was determined by incubating samples of approximately 18 mg at different conditions (temperature and relative humidity). After 1 week and 4 weeks, the samples were analyzed by XRPD to determine the polymorphic form, by TGA to determine the mass loss upon heating and by LCMS to determine the API purity. The experimental details and results are described in Table 6.

[5] = Bioavailability study in rats; type: in vivo; conditions: male, Wistar, blood, rat, single dose, vs 1 mg/kg intravenous, read-out: Bioavailability (Fabs)
Method: Male Wistar rats were used. Six groups of four animals each were used. Two groups were administered a single intravenous dose of 1 mg/kg of the free base or the HCl2 salt, one group was administered a single oral dose of 3 mg/kg of the free base, and three groups were administered a single oral dose of 3, 10 or 50 mg/kg of the HCl2 salt. Blood samples were collected after 0.25, 0.5, 1, 2, 4, 6, 8 and 24 hours following intravenous administration, and after 0.083, 0.25, 0.5, 1, 2, 4, 6, 8 and 24 hours following oral administration. The samples were analyzed using an LC/MS/MS system. The bioavailability (Fabs) is shown in Table 7 and was calculated as follows: […]

[6] = Solubility in water at pH 7; type: physicochemical
Method: For instance, whereas the free base only sparingly dissolves in water at pH 7 (<1 mg/mL), Forms HCl2 and HCl3 are highly soluble in water at the same pH (>100 mg/mL). The higher solubility of the HCl salt allows continued investigation of the compound at higher concentrations, which is advantageous e.g. in toxicology studies. […] It is expected that the increased bioavailability (and thus the increased exposure) of the HCl salt may lead to an improved efficacy of PN6047 in the treatment of pain and other indications as mentioned herein. Possibly, the increased bioavailability may allow the HCl salt to be administered in substantially lower doses than the free base. The unexpected increase in bioavailability of the HCl salt may also enable the use of sustained release formulations of the compound.

CN(C)C(=O)c1ccc(C(=C2CCN(Cc3cncs3)CC2)c2cccc(C(N)=O)c2)cc1 [Form HCl2, 4-[(3-carbamoylphenyl)[1-(1,3-thiazol-5-ylmethyl)piperidin-4-ylidene]methyl]-N,N-dimethylbenzamide]
relative humidity at which the form absorbs water and transforms into Form HCl3 [1]: > 85 % RH | relative humidity up to which the form is believed stable [1]: up to 85 % RH | mass increase ([1]; DVS, 25° C., from 90 to 95% RH): 10.0% | change in mass ([1]; DVS, 25° C., increasing RH up to about 90% RH): approximately 3.3% | hygroscopicity (classification as per the European Pharmacopoeia) ([1]; DVS): moderate hygroscopicity | water uptake ([1]; DVS): approximately 2.2% | hygroscopicity (classification as per the European Pharmacopoeia) ([1]; DVS, listed as form HCl2): moderately hygroscopic | water uptake ([1]; DVS, listed as form HCl2): approximately 2.2% | form by HT-XRPD after the DVS cycle ([1]; 25° C., listed as form HCl2): conversion had taken place from form HCl2 to form HCl3 | form by XRPD after incubation ([2]; 85% RH, room temperature): conversion into form HCl3 had taken place | time chemically stable in saline [3]: up to 1 week | LCMS API ([3]; 10 mg/mL, 5° C., 3 d): 99.9 area % | LCMS API ([3]; 10 mg/mL, 5° C., 4 d): 99.9 area % | LCMS API ([3]; 10 mg/mL, 5° C., 7 d): 99.9 area % | LCMS API ([3]; 10 mg/mL, 25° C., 0 d): 99.9 area % | LCMS API ([3]; 10 mg/mL, 25° C., 3 d): 99.9 area % | LCMS API ([3]; 10 mg/mL, 25° C., 4 d): 99.9 area % | LCMS API ([3]; 10 mg/mL, 25° C., 7 d): 99.9 area % | LCMS API ([3]; 10 mg/mL, 40° C., 3 d): 99.9 area % | LCMS API ([3]; 10 mg/mL, 40° C., 4 d): 99.9 area % | LCMS API ([3]; 10 mg/mL, 40° C., 7 d): 99.9 area % | LCMS API ([3]; 100 mg/mL, 5° C., 3 d): 99.9 area % | LCMS API ([3]; 100 mg/mL, 5° C., 4 d): 99.9 area % | LCMS API ([3]; 100 mg/mL, 5° C., 7 d): 99.9 area % | LCMS API ([3]; 100 mg/mL, 25° C., 0 d): 99.9 area % | LCMS API ([3]; 100 mg/mL, 25° C., 3 d): 99.9 area % | LCMS API ([3]; 100 mg/mL, 25° C., 4 d): 99.9 area % | LCMS API ([3]; 100 mg/mL, 25° C., 7 d): 99.9 area % | LCMS API ([3]; 100 mg/mL, 40° C., 3 d): 99.9 area % | LCMS API ([3]; 100 mg/mL, 40° C., 4 d): 99.9 area % | LCMS API ([3]; 100 mg/mL, 40° C., 7 d): 100.0 area % | time physically stable ([4]; 25° C./60% RH, 40° C./75% RH and 60° C./38% RH): ≥ 4 weeks | LCMS API ([4]; 1 week, 25° C./60% RH): 100 area % | TGA mass loss ([4]; 1 week, 25° C./60% RH): 1.8 wt % | XRPD ([4]; 1 week, 25° C./60% RH): HCl2 | LCMS API ([4]; 1 week, 40° C./75% RH): 100 area % | TGA mass loss ([4]; 1 week, 40° C./75% RH): 1.9 wt % | XRPD ([4]; 1 week, 40° C./75% RH): HCl2 | LCMS API ([4]; 1 week, 60° C./38% RH): 100 area % | TGA mass loss ([4]; 1 week, 60° C./38% RH): 1.9 wt % | XRPD ([4]; 1 week, 60° C./38% RH): HCl2 | LCMS API ([4]; 4 weeks, 25° C./60% RH): 100 area % | TGA mass loss ([4]; 4 weeks, 25° C./60% RH): 1.5 wt % | XRPD ([4]; 4 weeks, 25° C./60% RH): HCl2 | LCMS API ([4]; 4 weeks, 40° C./75% RH): 100 area % | TGA mass loss ([4]; 4 weeks, 40° C./75% RH): 1.6 wt % | XRPD ([4]; 4 weeks, 40° C./75% RH): HCl2 | LCMS API ([4]; 4 weeks, 60° C./38% RH): 100 area % | TGA mass loss ([4]; 4 weeks, 60° C./38% RH): 1.9 wt % | XRPD ([4]; 4 weeks, 60° C./38% RH): HCl2 | LCMS API ([4]; incubation time 0): 100 area % | TGA mass loss ([4]; incubation time 0): 1.0 wt % | XRPD ([4]; incubation time 0): HCl2 | bioavailability ([5]; oral 3 mg/kg): 24% | bioavailability ([5]; oral 10 mg/kg): 35.5% | bioavailability ([5]; oral 50 mg/kg): 35% and 34.6%

CN(C)C(=O)c1ccc(C(=C2CCN(Cc3cncs3)CC2)c2cccc(C(N)=O)c2)cc1 [Form HCl3, 4-[(3-carbamoylphenyl)[1-(1,3-thiazol-5-ylmethyl)piperidin-4-ylidene]methyl]-N,N-dimethylbenzamide]
hygroscopicity (classification as per the European Pharmacopoeia) ([1]; DVS, listed as form HCl3): moderately hygroscopic | water uptake ([1]; DVS, listed as form HCl3): approximately 8.0% | form by HT-XRPD after the DVS cycle ([1]; 25° C., listed as form HCl3): form HCl3 was still present | form after drying ([2]; 50° C./1 mbar): poorly crystalline phase of Form HCl3; also recorded: less crystalline phase of Form HCl3

CN(C)C(=O)c1ccc(C(=C2CCN(Cc3cncs3)CC2)c2cccc(C(N)=O)c2)cc1 [Free base, 4-[(3-carbamoylphenyl)[1-(1,3-thiazol-5-ylmethyl)piperidin-4-ylidene]methyl]-N,N-dimethylbenzamide]
solubility in water [6]: < 1000 µg/mL | bioavailability ([5]; oral 3 mg/kg): 8%
